Data from US7868028B2 (priority 2002, dated 2011).
pIC50, pKd: −log10 of the molar value. Values joined by “and” are separate entries in the source; they are usually repeats but may differ in a detail not shown here. Identical values can stand only once. Like-named read-outs stand apart in the source and are kept apart here.

What was measured:
Male Sprague-Dawley rats = settings: rat, in vivo; further: test concentration or dose not given here
[1] = test system: voltage-gated sodium channel (site 1, [3H]Saxitoxin binding); set-up: species or system rat; on % inhibition: test concentration or dose not given here
[2] = target: voltage-gated sodium channel; settings: cited from earlier work

| Structure (SMILES) | Average % MPE 5 minutes (Male Sprague-Dawley rats) [% MPE] | Average % MPE Day 4 (Male Sprague-Dawley rats) [% MPE] | % inhibition [1] [%] | pIC50 [1] | Average % MPE 5 minutes (Male Sprague-Dawley rats; hydrobromide) | pKd [2] |
| --- | --- | --- | --- | --- | --- | --- |
| CCCCn1c(=N)n(CC(O)COc2ccc(Cl)cc2)c2ccccc21.Cl (racemic) [Compound 10] | 26 | 19 | 42 | 4.02 |  |  |
| Cl.N=c1n(CCN2CCCCC2)c2ccccc2n1CC(O)COc1ccccc1 (racemic) [Compound 22] | 100 |  | 14 | 3.68 |  |  |
| Br.N=c1n(Cc2ccc(F)cc2)c2ccccc2n1CC(O)COc1ccccc1 (racemic) [Compound 70] | 83 | 4 | 26 | 4.01 |  |  |
| Br.COc1ccc(Cn2c(=N)n(CC(O)COc3ccccc3)c3ccccc32)cc1 (racemic) [Compound 78] | 11 | −4 | 17 | 4.17 |  |  |
| Cl.N=c1n(Cc2ccccc2)c2ccccc2n1CC(O)COc1ccc(Cl)cc1 (stereo not drawn) [Compound 1] | 100 | 3 | 59 | 4.82 |  |  |
| Br.N=c1n(Cc2ccccc2)c2ccccc2n1CC(O)COc1ccccc1 (stereo not drawn) [Compound 3, 1-benzyl-2-imino-3-(2-hydroxy-3-phenoxypropyl)benzimidazole hydrobromide] |  |  | 52 | 4.68 | 76 % MPE and 100 % MPE |  |
| Cl.N=c1n(Cc2ccccc2)c2ccccc2n1CC(O)c1ccc(Cl)cc1 (stereo not drawn) [Compound 7] | 100 | 32 | 51 | 4.22 |  |  |
| CCn1c(=N)n(CC(O)c2ccc(Cl)c(Cl)c2)c2ccccc21.Cl (stereo not drawn) [Compound 9] | 100 | 34 | 46 | 4.05 |  |  |
| Cc1ccc(Cn2c(=N)n(CC(O)c3ccc(Cl)c(Cl)c3)c3ccccc32)cc1.Cl (stereo not drawn) [Compound 11] | 34 | 18 | 48 | 3.81 |  |  |
| Br.N=c1n(Cc2ccccc2)c2ccccc2n1CC(O)COCc1ccccc1 (stereo not drawn) [Compound 71] | 100 | 2 | 34 | 4.52 |  |  |
| NC1=N[C@H](O)[C@H]2[C@H]3O[C@]4(O)O[C@@H]([C@@H](O)[C@@]2(N1)[C@@H]4O)[C@]3(O)CO [TTX, tetrodotoxin] |  |  |  |  |  | 8.30 to 8.52 |
